# Experimental data taken from patent publication US7741295B2, “Sir2 products and activities” (Albert Einstein College of Medicine of Yeshiva University, priority 2001, dated 2010).
# How the values were obtained:
# [1] = Stability of authentic β-1′-AADPR (elimination as a Sir2p product); type: physicochemical; conditions: 100 μM, 40 mM phosphate buffer pH 6.25, one hr at 55° C., HPLC
# Text: Elimination of β-1′-AADPR as a Sir2p product.
# AfSir2 = assay: Inhibition of AfSir2 by ADPR; type: biochemical, Archaeoglobus fulgidus
# esterase activity [2] = assay: Breakdown of AADPR by esterase activity in hamster ovary cell extract; type: in vitro ADME; conditions: hamster ovary cells extract
# Text: (§1) The use of AADPR or radiolabeled AADPR is a strategy to characterize and discover the esterases (or other enzymes) that break down or utilize AADPR in vivo. Specifically, AADPR breakdown can be measured by HPLC or TLC assay. When radiolabels are used, amounts of AADPR necessary for this purpose can be as small as 250 pmoles.
# esterase activity [3] = assay: Breakdown of AADPR by esterase activity in rat liver extract; type: in vitro ADME
# Text: as §1
# Sir2Af1 = target: T1, Sir2Af1 (Archaeoglobus fulgidus, UniProt O28597); conditions: cited from earlier work
# T1 construct: made in house
# T1 sequence (O28597 1-245): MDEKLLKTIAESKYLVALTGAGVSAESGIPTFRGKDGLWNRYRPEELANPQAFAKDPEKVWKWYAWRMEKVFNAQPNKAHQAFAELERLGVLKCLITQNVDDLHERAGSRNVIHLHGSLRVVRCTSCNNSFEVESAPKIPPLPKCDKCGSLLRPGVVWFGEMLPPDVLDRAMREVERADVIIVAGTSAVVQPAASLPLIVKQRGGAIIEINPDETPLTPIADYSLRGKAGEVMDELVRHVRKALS
# [4] = Interconversion rates of 2′- and 3′-AADPR (HPLC, NMR); type: physicochemical
# Procedure: Interconversion rates of 2′- and 3′-AADPR. Sample of both 2′- and 3′-AADPR were incubated at 15° C. and analyzed by HPLC at 40 min intervals (C-18 column; 50 mM ammonium acetate pH 5.0). The percent of the 3′-isomer at a given time was fit to the equation 3′-AADPR (%)=Pa exp (−kt)+Pf where Pa+Pf=P0; where Pa is the percent of the 3′-isomer above equilibrium at time=0, t is time and k is the first order rate constant for the conversion. Pf is the percent at equilibrium and P0 is the initial percent. HPLC and NMR analysis established the 2′- and 3′-isomers concentration as a function of time. NMR was in 10% d4-methanol/90% D2O at 0° C. or in 100% D2O at 20° C.
# Sir2 = conditions: cited from earlier work
# Sir2Af2 [5] = target: T2, Sir2Af2 (Archaeoglobus fulgidus, UniProt O30124); assay: Low temperature ^1H NMR analysis of Sir2p reaction products (order of product formation); type: biochemical; conditions: 5° C.
# T2 construct: made in house
# T2 sequence (O30124 1-253): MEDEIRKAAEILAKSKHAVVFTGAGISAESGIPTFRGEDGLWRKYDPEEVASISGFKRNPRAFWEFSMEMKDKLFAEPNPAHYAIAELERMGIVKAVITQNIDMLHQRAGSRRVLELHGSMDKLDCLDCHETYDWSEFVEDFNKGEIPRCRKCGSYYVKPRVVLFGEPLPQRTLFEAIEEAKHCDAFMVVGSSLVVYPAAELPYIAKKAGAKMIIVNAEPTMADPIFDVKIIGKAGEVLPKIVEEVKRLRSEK
# Procedure: Low temperature studies of Sir2Af2 to identify order of product production. Sir2Af2 catalyzed deacetylation reactions were performed at 8° C. to determine the order of product formation. A 200 μL solution containing 150 μM NAD^+, 300 μM peptide JB12, in 40 mM potassium phosphate pH 6.2 were cooled to 8° C. and then 1 μL of 9 μg/μL of Sir2Af2 was added to initiate the reaction. Reactions were assayed by HPLC using 0.5% TFA as an eluant. Peals at 17 and 20 min were used to quantitate 3′- and 2′-AADPR at 30 minute intervals.
# Low temperature ^1H NMR analysis of Sir2p reaction products. A solution of 1.7 mg Sir2Af2 enzyme in 95% D2O, 50 mM potassium phosphate pH 6.3 was concentrated to 550 μL using centrifugation filtration. This sample was mixed with 2 mg JB12 peptide and cooled to 5° C. in a 600 MHz NMR spectrometer. Spectra were obtained and 280 μL of ice-chilled 22 mM NAD^+ solution in 50 mM potassium phosphate pH 6.3 in 99% D2O was added to initiate the reaction. ^1H NMR 1D spectra were obtained at intervals over 18 hr at 5° C.
# Sir2Af2 [6] = target: T2, Sir2Af2; assay: Ara-F-NAD^+ as NAD^+ analogue: substrate and nicotinamide exchange reactions with Sir2Af2; type: biochemical; conditions: for [Carbonyl-^14C]-nicotinamide exchange catalysed by Sir2Af2: 5 mM nicotinamide, 300 μM peptide; for Substrate in Sir2Af2 deacetylation of peptide JB12: ara-F-NAD^+ 50 μM, JB12 300 μM, pH 6.25, C-18 HPLC
# Procedure: (§2) Ara-F-NAD^+ as an NAD^+ analogue. Ara-F NAD^+ is an inhibitor of ADP-ribosyl-transferase and was used to evaluate Sir2Af2. Ara-F-NAD^+ was synthesized as previously reported^44. Deacetylation of peptide JB12 (300 μM) by Sir2Af2 (10 μg) in the presence of ara-F-NAD^+ (50 μM) was tested in 200 μL of 40 mM potassium phosphate pH 6.25. No change of ara-F-NAD^+ was detected by C-18 reverse phase HPLC. […] A control run with […] and NAD^+ established [Carbonyl-^14C]-nicotinamide exchange into NAD^+, confirming the Sir2 base-exchange reaction. […] Inhibition of Sir2Af2 by ara-F-NAD^+ was evaluated by incubation of Sir2Af2 enzyme (7 μM) and ara-F-NAD^+ (20 μM) in the presence of 300 μM JB12 peptide in potassium phosphate pH 6.25 buffer. A reaction mixture lacking ara-F NAD^+ was the control. A positive control used the same reaction components but 500 nM CD38 in the presence of 5 μM ara-F-NAD^+. Reactions were initiated after 6 h by adding 150 μM NAD^+. Reactions were evaluated for catalytic turnover using HPLC. Catalytic turnover of Sir2Af2 was not inhibited by ara-F-NAD^+ under these reaction conditions.
# CD38 = CD38 controls with ara-F-NAD^+ (base exchange, inhibition); type: biochemical, human
# Procedure: as §2
# [7] = system: ADP-ribosyltransfer enzymes; conditions: cited from earlier work
# Sir2Af2 [8] = target: T2, Sir2Af2; assay: Inhibition of Sir2Af2 catalytic turnover by ara-F-NAD^+ (HPLC); type: biochemical; conditions: Sir2Af2 7 μM, ara-F-NAD^+ 20 μM, 300 μM JB12, 6 h then 150 μM NAD^+
# Procedure: as §2
# [9] = cited from earlier work
molecule,measurement,setting,value
CC(=O)O[C@@H]1O[C@H](COP(=O)(O)OP(=O)(O)OC[C@H]2O[C@@H](n3cnc4c(N)ncnc43)[C@H](O)[C@@H]2O)[C@@H](O)[C@H]1O [β-1′-AADPR],Change of β-1′-AADPR and production of 2′- or 3′-AADPR on incubation,[1],no change
adenosine diphosphate ribose [ADPR],Inhibition of AfSir2,AfSir2,potent inhibitor
acetyl adenosine diphosphate ribose [AADPR],Breakdown of AADPR to ADPR and acetate,esterase activity [2],high esterase activity exists that can breakdown AADPR
same,Breakdown of AADPR to ADPR and acetate,esterase activity [3],high esterase activity exists that can breakdown AADPR
"acetylated BSA: acetylated BSA, a non physiologic substrate",Substrate of Sir2Af1 as reported in the literature,Sir2Af1,is a substrate
"CC(=O)O[C@@H]1[C@@H](COP(=O)(O)OP(=O)(O)OC[C@H]2O[C@@H](n3cnc4c(N)ncnc43)[C@H](O)[C@@H]2O)OC(O)[C@@H]1O (stereo partly drawn) [3′-AADPR, 3′-O-acetyl-ADP-ribose]",rate of chemical exchange of the acetyl group,[4]; 15° C.,0.32 h⁻¹
same,equilibrium constant K,"[4]; 15° C., HPLC peak integrations of the 2′- and 3′-isomers",1.4
same,first-order rate constant for acetyl migration k3′ to 2′,"[4]; fit to exponential decay curve, 15° C.",0.32 h⁻¹
NC(=O)c1cccnc1 [nicotinamide],Inhibition of Sir2,Sir2,inhibits the enzyme
"CC(=O)O[C@H]1C(O)O[C@H](COP(=O)(O)OP(=O)(O)OC[C@H]2O[C@@H](n3cnc4c(N)ncnc43)[C@H](O)[C@@H]2O)[C@H]1O (stereo partly drawn) [2′-AADPR, 2′-O-acetyl-ADP-ribose]",rate of chemical exchange of the acetyl group,[4]; 15° C.,0.45 h⁻¹
same,α/β anomeric equilibrium rate,[4]; NMR,> 50 s⁻¹
same,calculated value for k3′ to 2′,"[4]; calculated from K and the measured rate constant, 15° C.",0.45 h⁻¹
same,time to establish 2′/3′ equilibrium,[4]; physiological temperatures of 37° C.,≤ 60 min
same,ratio kcat/k2′-3′,Sir2Af2 [5],20
NC(=O)c1ccc[n+]([C@@H]2O[C@H](COP(=O)([O-])OP(=O)(O)OC[C@H]3O[C@@H](n4cnc5c(N)ncnc54)[C@H](O)[C@@H]3O)[C@@H](O)[C@H]2F)c1 [ara-F-NAD^+],[Carbonyl-^14C]-nicotinamide exchange catalysed by Sir2Af2,Sir2Af2 [6],no radioactivity incorporated
same,[Carbonyl-^14C]-nicotinamide exchange catalysed by Sir2Af2,Sir2Af2 [6]; listed as Ara-F NAD^+,did not serve as a substrate
same,Substrate in Sir2Af2 deacetylation of peptide JB12,Sir2Af2 [6],No change
same,Substrate in Sir2Af2 deacetylation of peptide JB12,Sir2Af2 [6]; listed as Ara-F NAD^+,did not serve as a substrate
same,Activity (inactivation) on CD38 positive control,"CD38; 500 nM CD38, 5 μM ara-F-NAD^+",activity on the control using CD38
same,Base exchange with [^14C]nicotinamide catalysed by CD38,CD38; control,full base exchange
same,Inhibitor of ADP-ribosyltransfer enzymes,[7],powerful inhibitor
same,Inhibition of Sir2Af2 catalytic turnover,Sir2Af2 [8],not inhibited
same,Inhibition of Sir2Af2 catalytic turnover,Sir2Af2 [8]; listed as Ara-F-NAD^+,did not inactivate
same,Stability relative to NAD^+,[9],roughly 50 times
